Experimental data as given in ChEMBL document CHEMBL4402585 (J Med Chem, 2020).

Legend:
[1] = AUC (0 to t) in Sprague-Dawley rat at 3 mg/kg, po by LC-MS/MS analysis; type: ADME, organism-based; conditions: in vivo
[2] = biological target: Bromodomain testis-specific protein (Homo sapiens, UniProt Q58F21); assay: Binding affinity to human partial length BRDT bromodomain 2 isoform b (K250 to E382 residues) expressed in bacterial expression system by bromoscan assay
[3] = Half life in rat liver microsomes at 0.1 uM preincubated for 10 mins followed by NADPH addition and measured up to 60 mins by LC-MS/MS analysis; type: ADME, Microsome
[4] = biological target: T1, Bromodomain-containing protein 4 (Homo sapiens, UniProt O60885)
Description: Binding affinity to N-terminal His6-tagged BRD4 bromodomain 1 (49 to 170 residues) (unknown origin) expressed in Escherichia coli BL21 (DE3) assessed as change in melting temperature at 1:100 molar ratio by SYPRO orange dye based fluorescence thermal shift assay

[5] = AUC (0 to t) in mouse at 3 mg/kg, iv by LC-MS/MS analysis; type: ADME, organism-based; conditions: in vivo
[6] = system: MV4-11; assay: Antitumor activity against human MV4-11 cells xenografted in mouse assessed as tumor growth inhibition at 12.5 mg/kg, po administered for 28 days and measured every 2 to 3 days during compound dosing relative to control; type: functional; conditions: MV4-11, po, read-out: TGI
[7] = biological target: Cytochrome P450 2C19 (Homo sapiens, UniProt P33261); assay: Inhibition of CYP2C19 in human liver microsomes using S-mephenytoin as substrate preincubated for 10 mins followed by NADPH addition and measured after 15 mins by LC-MS/MS analysis; type: ADME
[8] = Oral bioavailability in mouse at 3 mg/kg by LC-MS/MS analysis; type: ADME, organism-based; conditions: in vivo
[9] = AUC (0 to t) in Sprague-Dawley rat at 1 mg/kg, iv by LC-MS/MS analysis; type: ADME, organism-based; conditions: in vivo
[10] = biological target: T1, Bromodomain-containing protein 4; assay: Inhibition of BRD4 in human MV4-11 cells assessed as reduction in c-Myc expression measured after 6 to 24 hrs by Western blot analysis; type: cell-based
[11] = Half life in mouse at 3 mg/kg, iv by LC-MS/MS analysis; type: ADME, organism-based; conditions: in vivo
[12] = system: MV4-11; assay: Antitumor activity against human MV4-11 cells xenografted in mouse assessed as tumor growth inhibition at 6.25 mg/kg, po administered for 28 days and measured every 2 to 3 days during compound dosing relative to control; type: functional; conditions: MV4-11, po, read-out: TGI
[13] = system: MM1.S; assay: Antiproliferative activity against human MM1S cells assessed as reduction in cell viability measured after 72 hrs by Celltitre-glo luminescence assay; type: functional, cell-based
[14] = Oral bioavailability in Sprague-Dawley rat at 3 mg/kg by LC-MS/MS analysis; type: ADME, organism-based; conditions: in vivo
[15] = Half life in monkey liver microsomes at 0.1 uM preincubated for 10 mins followed by NADPH addition and measured up to 60 mins by LC-MS/MS analysis; type: ADME, Macaca mulatta, Microsome; conditions: rhesus monkey
[16] = Half life in dog liver microsomes at 0.1 uM preincubated for 10 mins followed by NADPH addition and measured up to 60 mins by LC-MS/MS analysis; type: ADME, Canis lupus familiaris, Microsome
[17] = Clearance in mouse liver microsomes at 0.1 uM preincubated for 10 mins followed by NADPH addition and measured up to 60 mins by LC-MS/MS analysis; type: ADME, Microsome; conditions: 1 h

Cytochrome P450 2C19, sequence (P33261 whole entry): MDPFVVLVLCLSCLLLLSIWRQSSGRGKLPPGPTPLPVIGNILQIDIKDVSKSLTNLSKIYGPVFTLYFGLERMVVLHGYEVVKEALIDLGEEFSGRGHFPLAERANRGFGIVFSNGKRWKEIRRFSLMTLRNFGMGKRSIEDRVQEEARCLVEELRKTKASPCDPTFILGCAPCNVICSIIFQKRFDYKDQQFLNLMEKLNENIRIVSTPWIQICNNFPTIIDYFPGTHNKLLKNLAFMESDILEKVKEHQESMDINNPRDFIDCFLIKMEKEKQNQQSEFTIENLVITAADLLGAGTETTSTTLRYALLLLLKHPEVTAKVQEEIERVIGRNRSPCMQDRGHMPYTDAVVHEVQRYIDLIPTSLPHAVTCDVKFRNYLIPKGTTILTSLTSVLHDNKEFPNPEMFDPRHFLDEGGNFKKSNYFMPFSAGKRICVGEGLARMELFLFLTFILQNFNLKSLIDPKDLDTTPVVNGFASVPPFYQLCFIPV

AUC(0-t) [1]: 884 ng·h/mL
Kd [2]: 2.1 nM
half-life at 0.1 µM [3]: 32.4 min
ΔTm [4]: > 1 °C
AUC(0-t) [5]: 3270 ng·h/mL
IC50 [7]: > 20000 nM
bioavailability [8]: 52.3%
AUC(0-t) [9]: 848 ng·h/mL
inhibition [10]: Dose-dependent effect
half-life [11]: 54 min
IC50 [13]: 15.9 nM
bioavailability [14]: 34.7%
half-life at 0.1 µM [15]: 49 min
half-life at 0.1 µM [16]: 83.4 min
Microsomal intrinsic clearance [17]: 25.4 mL/min/g
Compound: CCS(=O)(=O)Cc1cnc(Oc2ccc(F)cc2F)c(-c2cc(C)c3c(=O)[nH]ccn23)c1
inhibition in vivo at 12.5 mg/kg [6]: 99.7%
inhibition in vivo at 6.25 mg/kg [12]: 76.4%
